From PMC11618052, “Design, synthesis, and antiproliferative activity of new 1,2,3-triazole/quinazoline-4-one hybrids as dual EGFR/BRAF^V600E inhibitors” (RSC Advances, 2024) come the findings set out here.

A word on the IC50: it is the midpoint of a concentration-inhibition curve. In general, GI50 refers to the concentration at which growth is held to half of that of the control. Read a high GI50 as lower sensitivity of the cells. For orientation: viability means a per cent measure of how many cells are alive, often set against a control. Low readings indicate a greater loss of cells, high ones better survival.

What all share (assay type): cell-based
Data set [1] deals with colon cancer (HT-29). Put plainly: Antiproliferative MTT assay, HT-29. Conditions: Homo sapiens, HT-29 colon cancer cells, read-out: Antiproliferative activity IC50 ± SEM, HT-29. On the procedure: (§1) The median inhibitory concentration (IC50) and GI50 (mean IC50) for the four cancer cell lines were calculated. Appendix A ^† contains more details. […]
In data set [2] the test system is pancreatic cancer (Panc-1). The experiment in a line: Antiproliferative MTT assay, Panc-1. The note with it: Homo sapiens, Panc-1 pancreatic cancer cells, read-out: Antiproliferative activity IC50 ± SEM, Panc-1. On the procedure: as §1
For orientation: Formazan colour is commonly taken as a measure of viable cells.

Data set [3] has as its system lung cancer (A-549). Put plainly: Antiproliferative MTT assay, A-549. Conditions: Homo sapiens, A549, A-549 lung cancer cells, read-out: Antiproliferative activity IC50 ± SEM, A-549. On the procedure: as §1
For data set [4], the system named is breast cancer (MCF-7). Put plainly: Antiproliferative MTT assay, MCF-7. Conditions: Homo sapiens, MCF7, MCF-7 breast cancer cells, read-out: Antiproliferative activity IC50 ± SEM, MCF-7. On the procedure:
as §1

Data set [5] has as its system four human cancer cell lines (A-549, MCF-7, Panc-1, HT-29). The experiment in a line: Antiproliferative MTT assay, mean over the four cancer cell lines. Conditions: for GI50: Homo sapiens, mean IC50 over A-549, MCF-7, Panc-1, HT-29. On the procedure:
as §1

Data set [6] in a line: Cell viability MTT assay on MCF-10A normal cells. The note with it: human, MCF-10A normal mammary gland epithelial cells, MCF-10A cells, four days of incubation. On the procedure: The viability of new compounds 8a–t was evaluated using the MCF-10A normal human mammary gland epithelial cell line. The cell viability of compounds 8a–t was examined using the MTT assay[36] after four days of incubation with MCF-10A cells. For more details, see Appendix A (ESI file). ^† […]
We evaluated the viability of new compounds 8a–t using the MCF-10A normal human mammary gland epithelial cell line. The cell viability of compounds 8a–t was examined using the MTT assay[36] after four days of incubation with MCF-10A cells.
4.2. Biological evaluation
4.2.1. Cytotoxic activity using MTT Assay and evaluation of IC 50
MTT assay was carried out to study the effect of compounds on mammary epithelial cells (MCF-10A). The medium in which cells were propagated contained Dulbecco's modified Eagle's medium (DMEM)/ Ham's F-12 medium (1:1) supplemented with epidermal growth factor (20 ng/mL), hydrocortisone (500 ng/mL), insulin (10 μg/mL), 2 mM glutamine and 10% foetal calf serum.
After every 2-3 days, the cells were passaged using trypsin ethylenediamine tetra acetic acid (EDTA). The cells were seeded at a density of 10^4 cells mL-1 in flat-bottomed culture plates containing 96 wells each. After 24 h, medium was removed from the plates and the compounds in (in 0.1% DMSO) were added (in 200 μL medium to yield a final concentration of 0.1% v/v) to the wells of plates. A single compound was designated with four wells followed by incubation of plates for 96h at 37°C. After incubation, medium was removed completely from the plates followed by addition of MTT (0.4 mg/mL in medium) to each well and subsequent incubation of plates for 3h. MTT (along with the medium) was removed and DMSO (150μL) was added to each well of the culture plates, followed by vortexing and subsequent measurement of absorbance (at 540 nm) using microplate reader. The data are shown as percentage inhibition of proliferation in comparison with controls containing 0.1% DMSO. […]

Consider `C#Cc1cccc(Nc2ncnc3cc(OCCOC)c(OCCOC)cc23)c1` [Erlotinib, reference compound], for which the IC50 was 0.03 ± 0.003 µM in data set [1], 0.03 ± 0.003 µM in data set [2], 0.03 ± 0.003 µM in data set [3] and 0.04 ± 0.003 µM in data set [4].
Regarding `O=c1c2ccccc2nc(SCc2cn(-c3ccc(Cl)cc3)nn2)n1-c1ccccc1` [Compound 8b, 2-(((1-(4-Chlorophenyl)-1H-1,2,3-triazol-4-yl)methyl)thio)-3-phenyl quinazolin-4(3H)-one], the IC50 in data set [1] was found to be 0.044 ± 0.003 µM; in data set [2] it was 0.042 ± 0.003 µM; in data set [3] it was 0.04 ± 0.003 µM; in data set [4], 0.036 ± 0.003 µM. The molecule also came in with a GI50 in data set [5] of 0.041 µM. Further, the viability at 4 days, 50 µM in data set [6] is 90%.
As for `C=CCn1c(SCc2cn(-c3ccc(OC)cc3)nn2)nc2ccccc2c1=O` [Compound 8s, 2-(((1-(4-Methoxyphenyl)-1H-1,2,3-triazol-4-yl)methyl)thio)-3-allyl quinazolin-4(3H)-one], the IC50 is 0.059 ± 0.005 µM in data set [1], 0.059 ± 0.005 µM in data set [2], 0.057 ± 0.005 µM in data set [3] and 0.053 ± 0.004 µM in data set [4]. In data set [5], the GI50 was 0.057 µM. This molecule registered a viability at 4 days, 50 µM in data set [6] of 91%.
For `CCn1c(SCc2cn(-c3ccc(Cl)cc3)nn2)nc2ccccc2c1=O` [Compound 8n, 2-(((1-(4-Chlorophenyl)-1H-1,2,3-triazol-4-yl)methyl)thio)-3-ethyl quinazolin-4(3H)-one], the IC50 came to 0.079 ± 0.006 µM in data set [1], 0.078 ± 0.006 µM in data set [2], 0.075 ± 0.006 µM in data set [3] and 0.071 ± 0.006 µM in data set [4]. This molecule also displayed a GI50 in data set [5] of 0.076 µM. The same molecule had a viability at 4 days, 50 µM in data set [6] of 92%.
Regarding `O=c1c2ccccc2nc(SCc2cn(-c3ccccc3)nn2)n1-c1ccccc1` [Compound 8a, 2-(((1-Phenyl-1H-1,2,3-triazol-4-yl)methyl)thio)-3-phenyl quinazolin-4(3H)-one], the IC50 came out at 0.064 ± 0.005 µM in data set [1], 0.064 ± 0.005 µM in data set [2], 0.061 ± 0.005 µM in data set [3] and 0.056 ± 0.005 µM in data set [4]. The GI50 in data set [5] came to 0.061 µM. Further, the viability at 4 days, 50 µM in data set [6] was 89%.
Take `CCn1c(SCc2cn(-c3ccccc3)nn2)nc2ccccc2c1=O` [Compound 8m, 2-(((1-Phenyl-1H-1,2,3-triazol-4-yl)methyl)thio)-3-ethyl quinazolin-4(3H)-one]: the IC50 in data set [1] came out at 0.074 ± 0.006 µM; in data set [2] it was 0.074 ± 0.006 µM; in data set [3], 0.072 ± 0.006 µM; in data set [4], 0.068 ± 0.006 µM. In data set [5], the GI50 amounted to 0.072 µM. The viability at 4 days, 50 µM in data set [6] stood at 90%.
On to `CCn1c(SCc2cn(-c3ccc(C)cc3)nn2)nc2ccccc2c1=O` [Compound 8p, 2-(((1-(p-Tolyl)-1H-1,2,3-triazol-4-yl)methyl)thio)-3-ethylquinazolin-4(3H)-one], for which the IC50 in data set [1] was found to be 0.085 ± 0.007 µM; in data set [2], 0.084 ± 0.007 µM; in data set [3] it was 0.082 ± 0.007 µM; in data set [4], 0.077 ± 0.007 µM. In addition, in data set [5], the GI50 came out at 0.082 µM. This molecule showed a viability at 4 days, 50 µM in data set [6] of 86%.
Regarding `Cc1ccc(-n2c(SCc3cn(-c4ccccc4)nn3)nc3ccccc3c2=O)cc1` [Compound 8e, 2-(((1-Phenyl-1H-1,2,3-triazol-4-yl)methyl)thio)-3-(p-tolyl)quinazolin-4(3H)-one], the IC50 in data set [1] worked out at 0.092 ± 0.008 µM; in data set [2] it was 0.092 ± 0.008 µM; in data set [3] it was 0.088 ± 0.008 µM; in data set [4] it was 0.085 ± 0.008 µM. For the same molecule, the “Fold less potent than compound 8g (GI50)” value in data set [5] (GI50 versus methoxy derivative 8g) amounted to 4. This molecule also gave a GI50 in data set [5] of 0.089 µM. Besides, the viability at 4 days, 50 µM in data set [6] was 90%.
For `CCn1c(SCc2cn(-c3ccc(OC)cc3)nn2)nc2ccccc2c1=O` [Compound 8o, 2-(((1-(4-Methoxyphenyl)-1H-1,2,3-triazol-4-yl)methyl)thio)-3-ethyl quinazolin-4(3H)-one], the IC50 in data set [1] was 0.074 ± 0.006 µM; in data set [2], 0.074 ± 0.006 µM; in data set [3], 0.069 ± 0.005 µM; in data set [4], 0.063 ± 0.005 µM. In data set [5], the GI50 was 0.07 µM. Also, in data set [6], the viability at 4 days, 50 µM was 89%.
As to `C=CCn1c(SCc2cn(-c3ccc(Cl)cc3)nn2)nc2ccccc2c1=O` [Compound 8r, 2-(((1-(4-Chlorophenyl)-1H-1,2,3-triazol-4-yl)methyl)thio)-3-allyl quinazolin-4(3H)-one], the IC50 in data set [1] was found to be 0.084 ± 0.007 µM; in data set [2], 0.081 ± 0.007 µM; in data set [3], 0.079 ± 0.006 µM; in data set [4] it was 0.075 ± 0.006 µM. In data set [5], halving of growth (GI50) required 0.08 µM. In data set [6], this molecule showed a viability at 4 days, 50 µM of 90%.
With `Cc1ccc(-n2cc(CSc3nc4ccccc4c(=O)n3-c3ccccc3)nn2)cc1` [Compound 8d, 2-(((1-(p-Tolyl)-1H-1,2,3-triazol-4-yl)methyl)thio)-3-phenylquinazolin-4(3H)-one], the IC50 in data set [1] stood at 0.056 ± 0.004 µM; in data set [2] it was 0.056 ± 0.004 µM; in data set [3], 0.053 ± 0.004 µM; in data set [4], 0.048 ± 0.004 µM. The same molecule registered a GI50 in data set [5] of 0.053 µM. This molecule came in with a viability at 4 days, 50 µM in data set [6] of 89%.
On to `C=CCn1c(SCc2cn(-c3ccc(C)cc3)nn2)nc2ccccc2c1=O` [Compound 8t, 2-(((1-(p-Tolyl)-1H-1,2,3-triazol-4-yl)methyl)thio)-3-allyl quinazolin-4(3H)-one], for which the IC50 in data set [1] is 0.087 ± 0.007 µM; in data set [2] it was 0.087 ± 0.007 µM; in data set [3] it was 0.084 ± 0.007 µM; in data set [4], 0.08 ± 0.007 µM. Further, the GI50 in data set [5] stood at 0.085 µM. In addition, the viability at 4 days, 50 µM in data set [6] was 90%.
With `C=CCn1c(SCc2cn(-c3ccccc3)nn2)nc2ccccc2c1=O` [Compound 8q, 2-(((1-Phenyl-1H-1,2,3-triazol-4-yl)methyl)thio)-3-allyl quinazolin-4(3H)-one], the IC50 in data set [1] stood at 0.096 ± 0.008 µM; in data set [2], 0.096 ± 0.008 µM; in data set [3], 0.093 ± 0.008 µM; in data set [4] it was 0.089 ± 0.008 µM. The molecule also had a GI50 in data set [5] of 0.094 µM. For the same molecule, in data set [6], the viability at 4 days, 50 µM stood at 87%.
For the molecule `COc1ccc(-n2cc(CSc3nc4ccccc4c(=O)n3-c3cccc(C)c3)nn2)cc1` [Compound 8k, 2-(((1-(4-Methoxyphenyl)-1H-1,2,3-triazol-4-yl)methyl)thio)-3-(m-tolyl)quinazolin-4(3H)-one], the IC50 stood at 0.045 ± 0.003 µM in data set [1], 0.046 ± 0.003 µM in data set [2], 0.042 ± 0.003 µM in data set [3] and 0.039 ± 0.003 µM in data set [4]. The same molecule returned a GI50 in data set [5] of 0.043 µM. The molecule also registered a viability at 4 days, 50 µM in data set [6] of 85%.
Turning to `Cc1cccc(-n2c(SCc3cn(-c4ccccc4)nn3)nc3ccccc3c2=O)c1` [Compound 8i, 2-(((1-Phenyl-1H-1,2,3-triazol-4-yl)methyl)thio)-3-(m-tolyl)quinazolin-4(3H)-one], the IC50 in data set [1] amounted to 0.068 ± 0.006 µM; in data set [2], 0.068 ± 0.006 µM; in data set [3], 0.065 ± 0.005 µM; in data set [4], 0.059 ± 0.005 µM. In data set [5], halving of growth (GI50) required 0.065 µM. The molecule further registered a viability at 4 days, 50 µM in data set [6] of 90%.
For the molecule `COc1ccc(-n2cc(CSc3nc4ccccc4c(=O)n3-c3ccccc3)nn2)cc1` [Compound 8c, 2-(((1-(4-Methoxyphenyl)-1H-1,2,3-triazol-4-yl)methyl)thio)-3-phenylquinazolin-4(3H)-one], the IC50 in data set [1] stood at 0.049 ± 0.003 µM; in data set [2], 0.049 ± 0.003 µM; in data set [3], 0.047 ± 0.003 µM; in data set [4] it was 0.042 ± 0.003 µM. Further, in data set [5], the GI50 was 0.047 µM. Besides, the viability at 4 days, 50 µM in data set [6] worked out at 86%.
